From US7053234B2 (Amgen Inc., priority 2000, dated 2006)
Values after ≈ are worked out from the molar mass of the structure shown. Read-outs that look alike come from different tables or passages of the source.

Experiments:
[1] = biological target: RNA-pol S. aureus (Staphylococcus aureus, UniProt P47768+Q2G0N5); experiment: RNA polymerase inhibition assay (S. aureus enzyme); format: biochemical
[2] = biological target: T1, Sigma^70 saturated E. coli RNA Polymerase (Escherichia coli, UniProt P0A8T7+P0A8V2); experiment: RNA polymerase inhibition assay (E. coli enzyme); format: biochemical
T1 construct: purchased Epicenter
Procedure: The compounds of the present invention can be evaluated for antibacterial activity in a variety of assay formats known to those of skill in art. The specific assays used to select the most appropriate compound for use will typically depend on the targeted bacteria or infection. One common assay involves evaluation of the compounds as RNA polymerase inhibitors. In this assay, buffer (250 mM KCl, 5% Glycerol, 10 mM MgCl2, 0.1 mg/ml BSA) is combined with 6 mM B-M.E., PT5 DNA template, and 1.3 ug/rxn Sigma^70 saturated E. coli RNA Polymerase (Epicenter). The compound is then added in a manner not to exceed 5% DMSO. Nucleotide triphosphates are then added at the following concentration: 250 uM ATP, […] and UTP with 100 uM cold CTP and 50 uM alpha ^32P CTP. The mixture is incubated for 10 min at about 37° C. A [2×] loading buffer is added and the mixture is then run on a 6% urea denaturing PAGE until bromophenol blue reaches the edge of plate. The gel is soaked (about 20 minutes in 10% MeOH and 10% acetic acid, to remove urea), then dried (about 55 minutes at about 85° C. (BioRad Gel Drier)) and exposed to a Phospho Imaging Plate for 1 hour. The plate is then read on a Fujix Bas1000 Imaging System and quantified using MacBas v2.0 software. An IC50 (in uM) can be calculated as the concentration of a drug which reduces the enzyme activity to 50% of the control.

[3] = tested on: E. coli (tolC); experiment: MIC determination, E. coli (tolC); format: cell-based; settings: Escherichia coli
Procedure: (§1) For MIC determinations for selected bacteria, log phase growing bacteria are re-suspended at 1×10^5 bacteria per mL in LB medium. The compound is added and two-fold dilutions are made. The final volume in the 96-well plate is about 100 uL. The plate is incubated at 37° C. in the dark with shaking. After 16 hours of incubation, growth is monitored by reading A600 or by visual inspection. MIC is defined as the minimum concentration of drug resulting in inhibition of visible growth of bacterial under the conditions described (above) in National Committee for Clinical Laboratory Standards 1993. Methods for dilution antimicrobial susceptibility tests for bacteria that grow aerobically. Approved standard M7-A3; National Committee for Clinical Laboratory Standards: Villanova, Pa.

[4] = tested on: S. aureus; experiment: MIC determination, S. aureus; format: cell-based; settings: Staphylococcus aureus
Procedure: The compound is added and two-fold dilutions are made. The final volume in the 96-well plate is about 100 uL. The plate is incubated at 37° C. in the dark with shaking. After 16 hours of incubation, growth is monitored by reading A600 or by visual inspection. […] Methods for dilution antimicrobial susceptibility tests for bacteria that grow aerobically. Approved standard M7-A3; National Committee for Clinical Laboratory Standards: Villanova, Pa.

[5] = tested on: B. su; experiment: MIC determination, B. su; format: cell-based; settings: Table 1, 16 hours at 37° C. in LB medium, read-out: B. su (bacterial MIC)
Procedure: as §1

[6] = Table 2, read-out: RNA-pol IC50 (μM) E. coli
[7] = read-out: MIC (μM) E. coli (tolC)
[8] = Table 2, read-out: MIC (μM) S. aureus
[9] = Table 2, read-out: RNA-pol IC50 (μM) S. aureus
[10] = Table 1, enzyme not named, method uses E. coli RNA polymerase, read-out: IC50
[11] = 16 h, read-out: E. c(tolC) (bacterial MIC)
[12] = Table 1, MIC, 16 hours at 37° C. in LB medium, read-out: S. au (bacterial MIC)

RNA-pol S. aureus, sequence (Q2G0N5 whole entry): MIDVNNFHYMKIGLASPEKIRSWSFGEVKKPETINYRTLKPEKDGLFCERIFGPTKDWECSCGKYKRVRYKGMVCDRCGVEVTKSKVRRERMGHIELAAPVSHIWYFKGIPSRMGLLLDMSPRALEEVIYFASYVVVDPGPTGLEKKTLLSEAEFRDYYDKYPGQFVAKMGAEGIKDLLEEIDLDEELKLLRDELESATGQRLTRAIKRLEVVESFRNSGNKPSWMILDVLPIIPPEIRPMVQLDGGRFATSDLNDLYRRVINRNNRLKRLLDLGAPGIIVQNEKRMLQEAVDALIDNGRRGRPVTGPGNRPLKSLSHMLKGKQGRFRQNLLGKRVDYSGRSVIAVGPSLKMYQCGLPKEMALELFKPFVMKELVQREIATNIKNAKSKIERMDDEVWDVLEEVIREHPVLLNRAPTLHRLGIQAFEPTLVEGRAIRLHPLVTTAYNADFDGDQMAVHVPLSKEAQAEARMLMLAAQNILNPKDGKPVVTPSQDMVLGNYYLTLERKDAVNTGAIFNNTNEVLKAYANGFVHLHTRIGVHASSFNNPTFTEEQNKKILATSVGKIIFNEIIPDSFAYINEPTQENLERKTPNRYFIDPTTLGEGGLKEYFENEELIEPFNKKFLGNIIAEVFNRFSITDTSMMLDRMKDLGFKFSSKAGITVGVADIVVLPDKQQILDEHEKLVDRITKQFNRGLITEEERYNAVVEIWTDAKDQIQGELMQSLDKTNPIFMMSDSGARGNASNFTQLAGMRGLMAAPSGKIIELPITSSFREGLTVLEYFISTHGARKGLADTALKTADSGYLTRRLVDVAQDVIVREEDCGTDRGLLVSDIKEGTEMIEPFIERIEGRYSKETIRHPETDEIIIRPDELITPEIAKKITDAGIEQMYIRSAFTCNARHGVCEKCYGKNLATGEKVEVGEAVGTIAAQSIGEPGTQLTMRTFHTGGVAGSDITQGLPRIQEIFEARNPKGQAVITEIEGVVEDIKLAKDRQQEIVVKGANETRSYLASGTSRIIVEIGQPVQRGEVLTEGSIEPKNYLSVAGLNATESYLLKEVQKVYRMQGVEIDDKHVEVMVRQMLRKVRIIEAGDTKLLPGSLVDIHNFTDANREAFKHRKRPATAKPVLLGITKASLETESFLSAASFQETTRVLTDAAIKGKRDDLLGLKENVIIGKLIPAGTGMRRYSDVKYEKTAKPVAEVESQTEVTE
RNA-pol S. aureus, sequence (Q2FW32 whole entry, further chain): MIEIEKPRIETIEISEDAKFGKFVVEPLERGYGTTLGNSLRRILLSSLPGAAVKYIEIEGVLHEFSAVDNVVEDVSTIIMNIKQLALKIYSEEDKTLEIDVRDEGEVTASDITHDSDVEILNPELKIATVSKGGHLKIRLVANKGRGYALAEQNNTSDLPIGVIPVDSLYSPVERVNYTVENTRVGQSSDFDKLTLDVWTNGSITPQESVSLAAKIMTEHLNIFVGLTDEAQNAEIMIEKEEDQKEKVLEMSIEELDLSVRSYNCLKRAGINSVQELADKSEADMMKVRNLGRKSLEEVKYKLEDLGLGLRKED
RNA-pol S. aureus, sequence (P47768 whole entry): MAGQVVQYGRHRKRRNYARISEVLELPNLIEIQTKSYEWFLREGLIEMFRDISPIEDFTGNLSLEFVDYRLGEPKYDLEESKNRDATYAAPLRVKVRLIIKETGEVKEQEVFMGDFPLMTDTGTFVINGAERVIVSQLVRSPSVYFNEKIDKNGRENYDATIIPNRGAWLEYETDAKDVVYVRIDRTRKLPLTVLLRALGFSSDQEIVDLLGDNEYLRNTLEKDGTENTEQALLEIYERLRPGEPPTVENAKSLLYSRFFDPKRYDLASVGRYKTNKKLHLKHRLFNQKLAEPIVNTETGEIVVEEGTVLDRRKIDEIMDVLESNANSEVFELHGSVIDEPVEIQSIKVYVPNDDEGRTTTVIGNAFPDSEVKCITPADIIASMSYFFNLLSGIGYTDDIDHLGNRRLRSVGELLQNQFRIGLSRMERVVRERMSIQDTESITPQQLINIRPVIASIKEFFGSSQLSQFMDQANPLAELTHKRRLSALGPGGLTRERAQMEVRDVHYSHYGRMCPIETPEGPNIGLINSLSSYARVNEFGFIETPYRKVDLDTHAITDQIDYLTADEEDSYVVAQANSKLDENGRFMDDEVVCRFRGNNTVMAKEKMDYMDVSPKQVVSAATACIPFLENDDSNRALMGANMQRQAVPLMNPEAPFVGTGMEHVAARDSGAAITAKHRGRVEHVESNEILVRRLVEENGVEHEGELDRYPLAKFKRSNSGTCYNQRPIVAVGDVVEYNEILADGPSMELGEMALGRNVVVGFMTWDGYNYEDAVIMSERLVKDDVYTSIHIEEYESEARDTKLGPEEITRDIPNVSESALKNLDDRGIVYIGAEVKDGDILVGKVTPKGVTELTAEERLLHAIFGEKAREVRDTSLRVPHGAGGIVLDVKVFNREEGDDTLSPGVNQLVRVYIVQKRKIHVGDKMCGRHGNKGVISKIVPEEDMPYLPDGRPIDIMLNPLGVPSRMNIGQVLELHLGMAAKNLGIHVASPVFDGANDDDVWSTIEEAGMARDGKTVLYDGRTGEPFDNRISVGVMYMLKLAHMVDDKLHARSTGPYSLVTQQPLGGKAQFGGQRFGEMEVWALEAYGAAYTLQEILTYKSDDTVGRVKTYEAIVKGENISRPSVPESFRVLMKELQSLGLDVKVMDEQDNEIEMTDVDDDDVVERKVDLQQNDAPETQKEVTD

| SMILES | MIC [3, 7] | MIC [4, 8] | IC50 [1, 9] | also measured |
| --- | --- | --- | --- | --- |
| ON=C1CCN(c2ccc(C(=NO)Nc3cccc(Cl)c3)cc2C(F)(F)F)C1 [Compound 109] | < 40 µM | < 40 µM |  | IC50 [1]: > 50 µM; IC50 [2, 6]: 10 to 50 µM |
| CON=C1CCN(c2ccc(C(=NO)Nc3cccc(Cl)c3)cc2C(F)(F)F)C1 [Compound 110] | > 125 µM | 40 to 125 µM (≈ 17.1 to 53.4 µg/mL) |  | IC50 [1]: > 50 µM; IC50 [2, 6]: > 50 µM |
| OCCNc1ccc(C(=NO)Nc2cccc(Cl)c2)cc1C(F)(F)F [Compound 111] | < 40 µM | > 125 µM |  | IC50 [2, 6]: 10 to 50 µM |
| ON=C(Nc1cccc(Cl)c1)c1ccc(NCCN2CCNCC2)c(C(F)(F)F)c1 [Compound 112] | < 40 µM | > 125 µM |  | IC50 [1]: > 50 µM; IC50 [2, 6]: 10 to 50 µM |
| ON=C(Nc1cccc(Cl)c1)c1ccc(NCCc2ccc(O)cc2)c(C(F)(F)F)c1 [Compound 113] | < 40 µM | < 40 µM |  | IC50 [2, 6]: 10 to 50 µM |
| NS(=O)(=O)c1ccc(CCNc2ccc(C(=NO)Nc3cccc(Cl)c3)cc2C(F)(F)F)cc1 [Compound 114] | < 40 µM | < 40 µM |  | IC50 [1]: > 50 µM; IC50 [2, 6]: < 10 µM |
| [N-]=[N+]=Nc1cc(/C(=N/O)Nc2cccc(Cl)c2)cc(C(F)(F)F)c1F [Compound 115] | < 40 µM | < 40 µM | > 50 µM | IC50 [2, 6]: > 50 µM |
| Nc1cc(/C(=N/O)Nc2cccc(Cl)c2)cc(C(F)(F)F)c1F [Compound 116] | < 40 µM | < 40 µM | > 50 µM | IC50 [2, 6]: < 10 µM |
| Nc1cc(NC(=O)Nc2ccc(Cl)c(C(F)(F)F)c2)cc(C(F)(F)F)c1 [Compound 118] | < 40 µM | < 40 µM | > 50 µM |  |
| C=CCOC(=O)Nc1cc(NC(=O)Nc2ccc(Cl)c(C(F)(F)F)c2)cc(C(F)(F)F)c1 [Compound 119] | < 40 µM | < 40 µM |  |  |
| O=C(CSc1ccccc1)Nc1cc(NC(=O)Nc2ccc(Cl)c(C(F)(F)F)c2)cc(C(F)(F)F)c1 [Compound 120] | < 40 µM | < 40 µM | 10 to 50 µM | IC50 [2, 6]: > 50 µM |
| O=C(COc1ccc(Cl)cc1)Nc1cc(NC(=O)Nc2ccc(Cl)c(C(F)(F)F)c2)cc(C(F)(F)F)c1 [Compound 121] | > 125 µM | < 40 µM | > 50 µM |  |
| O=C(Nc1cc(NS(=O)(=O)c2ccc(C(F)(F)F)cc2)cc(C(F)(F)F)c1)Nc1ccc(Cl)c(C(F)(F)F)c1 [Compound 122] | > 125 µM | < 40 µM | 10 to 50 µM |  |
| O=C(Nc1cc(N2CCCC2)cc(C(F)(F)F)c1)Nc1ccc(Cl)c(C(F)(F)F)c1 [Compound 123] | > 125 µM | < 40 µM | < 10 µM |  |
| COCC1CCCN1c1cc(NC(=O)Nc2ccc(Cl)c(C(F)(F)F)c2)cc(C(F)(F)F)c1 (centres unmarked) [Compound 124] | > 125 µM | < 40 µM | 10 to 50 µM |  |
| O=C(Nc1cc(N2CCOCC2)cc(C(F)(F)F)c1)Nc1ccc(Cl)c(C(F)(F)F)c1 [Compound 125] | < 40 µM | < 40 µM | 10 to 50 µM |  |
| O=C(Nc1cc(N2CCOC2=O)cc(C(F)(F)F)c1)Nc1ccc(Cl)c(C(F)(F)F)c1 [Compound 126] | < 40 µM | > 125 µM | < 10 µM |  |
| O=C(Nc1cc(N2CCNC2=O)cc(C(F)(F)F)c1)Nc1ccc(Cl)c(C(F)(F)F)c1 [Compound 127] | > 125 µM | > 125 µM | 10 to 50 µM |  |
| COc1cc(NC(=O)CNc2ccc(Cl)c(C(F)(F)F)c2)cc(C(F)(F)F)c1 [Compound 128] | < 40 µM | < 40 µM | > 50 µM |  |

| SMILES | MIC [3, 7] | MIC [4, 8] | IC50 [1, 9] | also measured |
| --- | --- | --- | --- | --- |
| COCC1CCCN1c1cc(NC(=O)CNc2ccc(Cl)c(C(F)(F)F)c2)cc(C(F)(F)F)c1 (centres unmarked) [Compound 129] | > 125 µM | < 40 µM | > 50 µM |  |
| O=C(CNc1ccc(Cl)c(C(F)(F)F)c1)Nc1cc(NC(=O)COc2ccc(Cl)cc2)cc(C(F)(F)F)c1 [Compound 130] | > 125 µM | < 40 µM | > 50 µM |  |
| O=C(COc1ccc(Cl)cc1)Nc1cc(NCCNc2nc3cc(Cl)c(Cl)cc3[nH]2)cc(C(F)(F)F)c1 [Compound 131] | > 125 µM | < 40 µM | < 10 µM |  |
| COCOc1cc(NC(=O)Nc2ccc(Cl)c(C(F)(F)F)c2)cc(C(F)(F)F)c1 [Compound 132, 1-(4-Chloro-3-trifluoromethyl-phenyl)-3-(3-methoxymethoxy-5-trifluoromethyl-phenyl)-urea] | < 40 µM | < 40 µM | 10 to 50 µM |  |
| O=C(Nc1cc(O)cc(C(F)(F)F)c1)Nc1ccc(Cl)c(C(F)(F)F)c1 [Compound 133, 1-(4-Chloro-3-trifluoromethyl-phenyl)-3-(3-hydroxy-5-trifluoromethyl-phenyl)-urea] | < 40 µM | < 40 µM | 10 to 50 µM |  |
| C=CCOc1cc(NC(=O)Nc2ccc(Cl)c(C(F)(F)F)c2)cc(C(F)(F)F)c1 [Compound 134] | > 125 µM |  | < 10 µM | MIC ([4]; read-out: MIC (μM) S. aureus): < 40 µM |
| O=C(Nc1cc(OCc2cccc(Cl)c2)cc(C(F)(F)F)c1)Nc1ccc(Cl)c(C(F)(F)F)c1 [Compound 135] | > 125 µM |  | 10 to 50 µM |  |
| O=C(CNc1ccc(N2CCCCC2)c(C(F)(F)F)c1)Nc1cc(COc2cccc(Cl)c2)cc(C(F)(F)F)c1 [Compound 136, N-[3-(3-Chloro-phenoxymethyl)-5-trifluoromethyl-phenyl]-2-(4-piperidin-1-yl-3-trifluoromethyl-phenylamino)-acetamide] | > 125 µM | < 40 µM | < 10 µM |  |
| O=C(Nc1ccc(Cl)c(C(F)(F)F)c1)OCc1cc(-n2cccc2)cc(C(F)(F)F)c1 [Compound 137] | < 40 µM | < 40 µM | 10 to 50 µM |  |
| O=C(CSc1ccccc1)Nc1cc(COC(=O)Nc2ccc(Cl)c(C(F)(F)F)c2)cc(C(F)(F)F)c1 [Compound 139, (4-Chloro-3-trifluoromethyl-phenyl)-carbamic acid 3-(2-phenylsulfanyl-acetylamino)-5-trifluoromethyl benzyl ester] | < 40 µM | < 40 µM | 10 to 50 µM |  |
| O=C(CNc1cccc(Cl)c1)Nc1cc(NC(=O)CNc2cccc(Cl)c2)cc(C(F)(F)F)c1 [Compound 140, 2-(3-Chloro-phenylamino)-N-{3-[2-(3-chloro-phenylamino)-acetylamino]-5-trifluoromethyl-phenyl}acetamide] | > 125 µM | < 40 µM |  |  |
| O=[N+]([O-])c1cc(C(=NO)Nc2ccccc2)ccc1Cl [Example 15] |  |  |  | IC50 [2, 10]: 10 to 50 µM; MIC [3, 11]: > 125 µM; MIC [5]: > 125 µM; MIC [4, 12]: > 125 µM |
| ON=C(Nc1ccccc1)c1ccc(F)c(C(F)(F)F)c1 [Example 16] |  |  |  | IC50 [2, 10]: 10 to 50 µM; MIC [3, 11]: < 40 µM; MIC [5]: 40 to 125 µM (≈ 11.9 to 37.3 µg/mL); MIC [4, 12]: > 125 µM |
| ON=C(Nc1cccc(Cl)c1)c1ccc(Cl)c(C(F)(F)F)c1 [Example 64] |  |  |  | IC50 [2, 10]: < 10 µM; MIC [3, 11]: < 40 µM; MIC [5]: < 40 µM; MIC [4, 12]: < 40 µM |
| ON=C(Nc1ccccc1)c1ccc(Cl)c(C(F)(F)F)c1 [Example 65] |  |  |  | IC50 [2, 10]: < 10 µM; MIC [3, 11]: < 40 µM; MIC [5]: 40 to 125 µM (≈ 12.6 to 39.3 µg/mL); MIC [4, 12]: < 40 µM |
| ON=C(Nc1ccccc1)c1cc(C(F)(F)F)cc(C(F)(F)F)c1 [R′=3-CF3, R″=5-CF3, R′″=H] |  |  |  | IC50 [2, 10]: > 50 µM; MIC [3, 11]: < 40 µM; MIC [5]: 40 to 125 µM (≈ 13.9 to 43.5 µg/mL); MIC [4, 12]: 40 to 125 µM (≈ 13.9 to 43.5 µg/mL) |
| ON=C(Nc1cccc(Br)c1)c1cccc(C(F)(F)F)c1 [R′=3-CF3, R″=H, R′″=3-Br] |  |  |  | IC50 [2, 10]: 10 to 50 µM; MIC [3, 11]: < 40 µM; MIC [5]: < 40 µM; MIC [4, 12]: 40 to 125 µM (≈ 14.4 to 44.9 µg/mL) |
| N#Cc1cccc(NC(=NO)c2cccc(C(F)(F)F)c2)c1 [R′=3-CF3, R″=H, R′″=3-CN] |  |  |  | IC50 [2, 10]: > 50 µM; MIC [3, 11]: 40 to 125 µM (≈ 12.2 to 38.2 µg/mL); MIC [5]: > 125 µM; MIC [4, 12]: > 125 µM |
